Source: ChEMBL document CHEMBL1201862, “PubChem BioAssay data set” (2004)
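1) Cells in 96-well plates. 2) Compound, 48 h, 5 concentrations. 3) Linear interpolation between surrounding doses. 4) Unreached endpoint = highest concentration. At the GI50, growth is halved.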 The source made the active and inactive calls. No stated cut-off is given here; in the data, active = GI50 up to about 1.1 µM and inactive = higher.

What was measured:
Assay in all cases: DTP human tumour cell line panel, 48 h
786-0 = test system: 786-0
A498 = test system: A498
CCRF-CEM = test system: CCRF-CEM
DU-145 = test system: DU-145
HCC 2998 = test system: HCC 2998
HL-60 = test system: HL-60
HT-29 = test system: HT-29
KM12 = test system: KM12
MDA-N = test system: MDA-N
NCI-H226 = test system: NCI-H226
NCI-H460 = test system: NCI-H460
OVCAR-8 = test system: OVCAR-8
SF-295 = test system: SF-295
SK-MEL-28 = test system: SK-MEL-28
SK-MEL-5 = test system: SK-MEL-5
SK-OV-3 = test system: SK-OV-3
SN12C = test system: SN12C
SR = test system: SR
SW-620 = test system: SW-620

| SMILES | GI50 (786-0) | GI50 (A498) | GI50 (CCRF-CEM) | GI50 (DU-145) | GI50 (HCC 2998) | GI50 (HL-60) | GI50 (HT-29) | GI50 (KM12) | GI50 (MDA-N) | GI50 (NCI-H226) | GI50 (NCI-H460) | GI50 (OVCAR-8) | GI50 (SF-295) | GI50 (SK-MEL-28) | GI50 (SK-MEL-5) | GI50 (SK-OV-3) | GI50 (SN12C) | GI50 (SR) | GI50 (SW-620) |
| --- | --- | --- | --- | --- | --- | --- | --- | --- | --- | --- | --- | --- | --- | --- | --- | --- | --- | --- | --- |
| Cc1ccc(S(=O)(=O)ON2C(=O)c3c(N)c(C#N)c(-c4ccccc4)c(-c4ccccc4)c3C2=O)cc1 | 15.8 µM (inactive) | 20 µM (inactive) | 3.16 µM (inactive) | 25.9 µM (inactive) | 31.2 µM (inactive) | 2.7 µM (inactive) | 19.1 µM (inactive) | 51.1 µM (inactive) | 16.4 µM (inactive) | 15.9 µM (inactive) | 35.6 µM (inactive) | 17.6 µM (inactive) | 20 µM (inactive) | 15.2 µM (inactive) | 17.1 µM (inactive) | 16.2 µM (inactive) | 18.1 µM (inactive) | 8.39 µM (inactive) | 14.6 µM (inactive) |
| O=C(Cn1nc(Br)c(Br)c1Br)c1ccccc1 | 23.7 µM (inactive) | 35 µM (inactive) | 5.97 µM (inactive) | 38.5 µM (inactive) | 36.6 µM (inactive) | 10.9 µM (inactive) | 22.2 µM (inactive) | 33.4 µM (inactive) | 32.9 µM (inactive) | 11.8 µM (inactive) | 23.8 µM (inactive) | 34.5 µM (inactive) | 29.1 µM (inactive) | 37.2 µM (inactive) | 18.1 µM (inactive) | 32.5 µM (inactive) | 65.6 µM (inactive) | 0.152 µM (active) | 34 µM (inactive) |
| CCOC(=O)/C=C(\C(=O)OCC)n1cnc2c(N)ncnc21 | 2.77 µM (inactive) | 13.2 µM (inactive) | 1.63 µM (inactive) | 15.6 µM (inactive) | 16 µM (inactive) | 0.931 µM (active) | 6.68 µM (inactive) | 14.8 µM (inactive) | 14.6 µM (inactive) | 5.97 µM (inactive) | 17.9 µM (inactive) | 7.45 µM (inactive) | 16.8 µM (inactive) | 13.6 µM (inactive) | 14.7 µM (inactive) | 17.7 µM (inactive) | 5.19 µM (inactive) | 1.91 µM (inactive) | 2.74 µM (inactive) |
| C/C(=N\O)c1cccc[n+]1Cc1ccccc1 | > 100 µM (inactive) | > 100 µM (inactive) | > 100 µM (inactive) | > 100 µM (inactive) | > 100 µM (inactive) | > 100 µM (inactive) | > 100 µM (inactive) | > 100 µM (inactive) | > 100 µM (inactive) | > 100 µM (inactive) | > 100 µM (inactive) | > 100 µM (inactive) | > 100 µM (inactive) | > 100 µM (inactive) | > 100 µM (inactive) | > 100 µM (inactive) | > 100 µM (inactive) | > 100 µM (inactive) | > 100 µM (inactive) |
| O=C(O)CCSC(CC1(c2ccc(Cl)cc2)NC(=O)CCS1)c1ccccc1 (stereo not given) | 6.7 µM (inactive) | 21.5 µM (inactive) | 1.9 µM (inactive) | > 39.4 µM (inactive) | 10 µM (inactive) | 3.44 µM (inactive) | 17.3 µM (inactive) | 3.56 µM (inactive) | 12.6 µM (inactive) | 17.3 µM (inactive) | 16.8 µM (inactive) | 19.9 µM (inactive) | 21.2 µM (inactive) | 17.9 µM (inactive) | 13 µM (inactive) | 20.5 µM (inactive) | 18.3 µM (inactive) | 8.32 µM (inactive) | 5.12 µM (inactive) |
| CC(C)[Si]1(C(C)C)OCC2OC(n3ccc(=O)[nH]c3=O)C([Se]c3ccccc3)C2O[Si](C(C)C)(C(C)C)O1 (stereo not given) | 3.83 µM (inactive) | 7.87 µM (inactive) | 8.91 µM (inactive) | 12.2 µM (inactive) | 1.58 µM (inactive) | 5.89 µM (inactive) | 1.66 µM (inactive) | 2.16 µM (inactive) | 3.4 µM (inactive) | 1.55 µM (inactive) | 1.87 µM (inactive) | 3.4 µM (inactive) | 5.9 µM (inactive) | 3.59 µM (inactive) | 3.01 µM (inactive) | 16.5 µM (inactive) | 2.29 µM (inactive) | 3.72 µM (inactive) | 2.32 µM (inactive) |
| Cc1nc(-c2ccccc2)cn2c1nc1ccccc12 | 21 µM (inactive) | 15.3 µM (inactive) | > 58.7 µM (inactive) | 31.8 µM (inactive) | 51.4 µM (inactive) | 67 µM (inactive) | 24.3 µM (inactive) | 20.8 µM (inactive) | 21.8 µM (inactive) | 17.5 µM (inactive) | 17.7 µM (inactive) | 18.8 µM (inactive) | 23.9 µM (inactive) | 30.5 µM (inactive) | 13.9 µM (inactive) | 6.32 µM (inactive) | 29.7 µM (inactive) | 27.2 µM (inactive) | 27.7 µM (inactive) |
| CC1(C)[C@H]2Cc3cc(-c4cc5c(cn4)[C@@H]4C[C@H]([C@@H]5[C@@H]5c6cc(-c7cc8c(cn7)[C@@H]7C[C@H](C8)C7(C)C)ncc6[C@@H]6C[C@H]5C6(C)C)C4(C)C)ncc3[C@@H]1C2 | > 100 µM (inactive) | > 100 µM (inactive) | > 100 µM (inactive) | > 100 µM (inactive) | 76.7 µM (inactive) | > 100 µM (inactive) | > 100 µM (inactive) | > 100 µM (inactive) | > 100 µM (inactive) | > 100 µM (inactive) | > 100 µM (inactive) | > 100 µM (inactive) | > 100 µM (inactive) | > 100 µM (inactive) | > 100 µM (inactive) | > 100 µM (inactive) | > 100 µM (inactive) | > 100 µM (inactive) | > 100 µM (inactive) |
| CN(C)CCCn1c(Cc2ccc(Cl)cc2)nc2cc(C(F)(F)F)ccc21 | 13.9 µM (inactive) | 12.7 µM (inactive) | 13 µM (inactive) | 14.1 µM (inactive) | 2 µM (inactive) | 29.6 µM (inactive) | 14.6 µM (inactive) | 14.3 µM (inactive) | 12 µM (inactive) | 18.7 µM (inactive) | 13.2 µM (inactive) | 17.3 µM (inactive) | 17.5 µM (inactive) | 17.9 µM (inactive) | 15.8 µM (inactive) | 14.4 µM (inactive) | 15.1 µM (inactive) | 15 µM (inactive) | 23.4 µM (inactive) |
| O=C(Nc1ccccc1)O/N=C(/CBr)c1ccccc1 | 7.71 µM (inactive) | 24 µM (inactive) | 3.52 µM (inactive) | 19.3 µM (inactive) | 18.5 µM (inactive) | 4.66 µM (inactive) | 6.87 µM (inactive) | 17.9 µM (inactive) | 6.87 µM (inactive) | 24 µM (inactive) | 19 µM (inactive) | 14.6 µM (inactive) | 26 µM (inactive) | 19.5 µM (inactive) | 11.9 µM (inactive) | 29.2 µM (inactive) | 8.22 µM (inactive) | 3.94 µM (inactive) | 5.35 µM (inactive) |
| Cc1sc(/N=C/c2c[nH]c3ccccc23)c(C#N)c1C | 27.4 µM (inactive) | 28.7 µM (inactive) | 15.3 µM (inactive) | 55.6 µM (inactive) | 14.9 µM (inactive) | 21.2 µM (inactive) | 6.89 µM (inactive) | 13.7 µM (inactive) | 53.7 µM (inactive) | 30.5 µM (inactive) | 33.1 µM (inactive) | 45.5 µM (inactive) | 28.3 µM (inactive) | > 100 µM (inactive) | 18.4 µM (inactive) | 88.7 µM (inactive) | 74.3 µM (inactive) | 18.2 µM (inactive) | 39.7 µM (inactive) |
| NC1=Nc2ncccc2C(=O)NN1 | > 10 µM (inactive) | > 10 µM (inactive) | > 10 µM (inactive) | > 10 µM (inactive) | 8.89 µM (inactive) | > 10 µM (inactive) | > 10 µM (inactive) | > 10 µM (inactive) | > 10 µM (inactive) | > 10 µM (inactive) | > 10 µM (inactive) | > 10 µM (inactive) | > 10 µM (inactive) | > 10 µM (inactive) | > 10 µM (inactive) | > 10 µM (inactive) | > 10 µM (inactive) | > 10 µM (inactive) | > 10 µM (inactive) |
| Cn1c(-c2ccccc2)cc(-c2ccsc2)c1-c1ccsc1 | > 100 µM (inactive) | > 100 µM (inactive) | 50 µM (inactive) | > 100 µM (inactive) | > 100 µM (inactive) | 53.2 µM (inactive) | 67.3 µM (inactive) | > 100 µM (inactive) | > 100 µM (inactive) | 6.81 µM (inactive) | > 100 µM (inactive) | > 100 µM (inactive) | > 100 µM (inactive) | > 100 µM (inactive) | > 100 µM (inactive) | 95.7 µM (inactive) | > 100 µM (inactive) | 9.66 µM (inactive) | > 100 µM (inactive) |
| CC(=O)O/C=C1/C[C@H]2[C@@H]3CCC4CC(C(C)=O)CC[C@]4(C)[C@H]3CC[C@]2(C)C1=O (stereo not given in full) | 68.2 µM (inactive) | > 100 µM (inactive) | 29.1 µM (inactive) | > 100 µM (inactive) | > 100 µM (inactive) | 11.9 µM (inactive) | 51.4 µM (inactive) | 33.7 µM (inactive) | 88.1 µM (inactive) | > 100 µM (inactive) | > 100 µM (inactive) |  | 49.1 µM (inactive) | > 100 µM (inactive) | 47.2 µM (inactive) | > 100 µM (inactive) | > 100 µM (inactive) | 44.1 µM (inactive) | > 100 µM (inactive) |
